Measured values reported in patent US20250099491A1, “PREVENTION OR TREATMENT OF CARDIOVASCULAR DISEASES WITH HIGH PENETRATION PRODRUGS OF ASPIRIN AND OTHER NSAIDS” (Techfields Inc., priority 2022, published 2025).

Tested on: rats, minipigs, rabbits, guinea pigs, Ames, CHO-WBL Cells
Test: Nonclinical pharmacology and toxicology battery
Format: in vivo
Conditions: battery of GLP dermal toxicity, genotoxicity, safety pharmacology, irritation and sensitization studies
Experimental: A battery of pharmacology and toxicology studies were conducted to support early clinical trials, including a GLP acute dermal maximum tolerated dose study in rats, a GLP acute dermal maximum tolerated dose study in minipigs, a 28-day GLP repeated dermal dose toxicity and toxicokinetics study in rats with 14-day recovery, a 28-day GLP repeated dermal dose toxicity and toxicokinetics study in minipigs with 14-day recovery, a GLP bacterial reverse mutation assay (Ames), a GLP in vitro chromosome aberration assay in CHO-WBL Cells, a GLP in vivo bone marrow micronucleus assay in rats, a behavioral effects in rats using the functional observational battery, a rat respiratory safety pharmacology study, a cardiovascular telemetry study in the unrestrained conscious minipigs, a skin irritation study in rabbits, and a sensitization test in guinea pigs.

## CCN(CC)CCOC(=O)c1ccccc1OC(C)=O.Cl [Compound-1]
  nonclinical safety and tolerability: safe and generally well tolerated
